Measured values reported in patent publication US12037324B2, “Biarylmethyl heterocycles” (Université de Montréal, priority 2016, dated 2024).
Read-outs that look alike come from different tables or passages of the source.

Key:
[1] = target: T1, AGTR1 (Homo sapiens, UniProt P30556); experiment: DiscoveRx β-arrestin2 recruitment assay (enzyme complementation, Pathunter CHO-K1 AGTR1 β-arrestin cell line); type: cell-based; conditions: DiscoveRx β-arrestin2 recruitment; for DiscoveRx β-arrestin2 Ymax (%): maximal response
T1 construct: host or cells: Pathunter CHO-K1 AGTR1 β-arrestin cell line (CHO-K1)
T1 sequence (P30556 1-359): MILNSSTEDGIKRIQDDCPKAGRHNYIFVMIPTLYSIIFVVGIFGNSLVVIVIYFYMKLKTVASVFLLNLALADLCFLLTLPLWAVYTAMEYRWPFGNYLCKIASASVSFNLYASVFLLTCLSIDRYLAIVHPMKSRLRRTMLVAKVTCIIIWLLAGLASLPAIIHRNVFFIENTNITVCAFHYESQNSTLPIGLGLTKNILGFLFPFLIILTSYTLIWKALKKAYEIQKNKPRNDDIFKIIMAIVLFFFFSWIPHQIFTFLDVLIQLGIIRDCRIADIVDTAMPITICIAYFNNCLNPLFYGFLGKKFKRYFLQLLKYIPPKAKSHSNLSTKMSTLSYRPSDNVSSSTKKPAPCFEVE
Procedure, shortened: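 Chemiluminescent enzyme-complementation read-out of β-arrestin2 recruitment to AGTR1 in engineered CHO-K1 cells after 90 min compound exposure at 37° C. Values are 4-parameter logistic EC50s in agonist mode, IC50s in antagonist mode, with efficacy relative to the maximal All response.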

[2] = target: T1, AGTR1; experiment: DiscoveRx IP1 accumulation assay (HTRF), agonist mode, Pathunter CHO-K1 AGTR1 β-arrestin cell line; type: cell-based; conditions: for EC50: read-out: IP-1 EC50
Procedure, shortened: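 Agonist mode in CHO-K1 AGTR1 β-arrestin cells plated 14-16 h before; compounds at varying concentrations for 90 min at 37° C, IP1 accumulation read by HTRF (D2-conjugate and anti-IP1 cryptate, 20 min room temperature). EC50 from 4-parameter logistic fit; activity given as percentage of maximal AII effect.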

[3] = target: T2, hAT1R (Homo sapiens, UniProt P30556); experiment: cell-based
T2 sequence (P30556 1-359): T1 sequence (P30556 1-359)

[4] = target: T2, hAT1R; experiment: cell-based; conditions: agonist mode; for EC50: read-out: BRET P63 EC50
[5] = section of the 42nd table ending at r951, example numbering restarts after the DiscoveRx section, read-out: β-arrestin2 EC50
[6] = Low AT1R Expression, read-out: BRET β-Arrestin2 Low AT1R Expression EC50

SMILES	EC50 [1] [nM]	DiscoveRx β-arrestin2 Ymax (%) [1] [%]	IP-1 Ymax (%) [2] [%]	EC50 [2] [nM]	EC50 [3, 5] [nM]	BRET P63 Ymax [4] [%]	EC50 [4] [nM]	EC50 [3, 6] [nM]	BRET β-Arrestin2 Low AT1R Expression Ymax (%) ([3]; Low AT1R Expression)
CCC1=NC2(CCOC2)C(=O)N1Cc1ccc(-c2cc(-c3ccccc3O)ccc2-c2nnn[nH]2)cc1 (single isomer, unassigned) [Example 167]	36	78.8	32.4	165	58.3	32.0	91.5	–	–
CCC1=NC2(CCOC2)C(=O)N1Cc1ccc(-c2cc(-c3ccccc3)ccc2-c2nnn[nH]2)cc1 (single isomer, unassigned) [Example 168]	352	34.5	13.8	826	998	–	> 10000	–	–
CCC1=NC2(CCOC2)C(=O)N1Cc1ccc(-c2cc(-c3cccc(C)c3)ccc2-c2nnn[nH]2)cc1 (single isomer, unassigned) [Example 169]	111	50.1	14.5	484	271	13.3	127	–	–
CCC1=NC2(CCOC2)C(=O)N1Cc1ccc(-c2cc(-c3ccccc3O)ccc2-c2nnn[nH]2)cc1 (single isomer, unassigned) [Example 170]	170	63.4	13.2	469	590	13.5	633	–	–
CCc1nc2c(C)cc(C)nc2n1Cc1ccc(-c2cc(-c3ccc(OC)cc3)ccc2-c2nn[nH]n2)cc1 [Example 14]	10.3	20.8	8.1	14.5	–	–	> 10000	> 10000	–
CCc1nc2c(C)cc(C)nc2n1Cc1ccc(-c2cc(-c3cc(OC)ccn3)ccc2-c2nn[nH]n2)cc1 [Example 62, 2-Ethyl-3-((5′-(4-methoxypyridin-2-yl)-2′-(2H-tetrazol-5-yl)-[1,1′-biphenyl]-4-yl)methyl)-5,7-dimethyl-3H-imidazo[4,5-b]pyridine]	15.1	50.0	22.7	29	–	35.7	4.2	3.7	74.7
CCc1nc2c(C)cc(C)nc2n1Cc1ccc(-c2cc(-c3ccc(F)cn3)ccc2-c2nn[nH]n2)cc1 [Example 65]	27.3	31.0	12.2	62.7	–	13.1	17.2	23.6	54.5
CCc1nc2c(C)cc(C)nc2n1Cc1ccc(-c2cc(-c3cc(C)c(F)cn3)ccc2-c2nn[nH]n2)cc1 [Example 66]	5.8	25.8	6.9	8.5	–	–	> 10000	16.6	39.4
CCc1nc2c(C)cc(C)nc2n1Cc1ccc(-c2cc(-c3cc(C(F)F)ccn3)ccc2-c2nn[nH]n2)cc1 [Example 67]	19.3	30.9	10.2	26.5	–	14.3	7.3	14.5	40.7
CCc1nc2c(C)cc(C)nc2n1Cc1ccc(-c2cc(C3CCCOC3)ccc2-c2nn[nH]n2)cc1 (stereo not drawn) [Example 79]	286	31.7	9.4	499	–	–	> 10000	464	21.1
CCc1nc2c(C)cc(C)nc2n1Cc1ccc(-c2cc(C3CCCC3)ccc2-c2nn[nH]n2)cc1 [Example 80, 3-((5′-cyclopentyl-2′-(2H-tetrazol-5-yl)-[1,1′-biphenyl]-4-yl)methyl)-2-ethyl-5,7-dimethyl-3H-imidazo[4,5-b]pyridine]	73.4	33.5	14.6	425	–	–	> 100000	30.4	29.8
CCc1nc2c(C)cc(C)nc2n1Cc1ccc(-c2cc(C3CCCCCC3)ccc2-c2nn[nH]n2)cc1 [Example 81]	38.3	17.6	–	> 100000	–	–	> 100000	38.3	16.3
CCc1nc2c(C)cc(C)nc2n1Cc1ccc(-c2cc(N3CCCCC3)ccc2-c2nn[nH]n2)cc1 [Example 91]	60.6	22.6	–	> 100000	–	–	> 100000	> 10000	–
CC1=NC2(CCCC2)C(=O)N1Cc1ccc(-c2cc(-c3ccccc3)ccc2-c2nn[nH]n2)cc1 [Example 110, 3-((6′-(2H-tetrazol-5-yl)-[1,1′:3′,1″-terphenyl]-4-yl)methyl)-2-methyl-1,3-diazaspiro[4.4]non-1-en-4-one]	35.9	26.9	9.0	108	–	–	> 100000	95.5	22.1
CC1=NC2(CCCC2)C(=O)N1Cc1ccc(-c2cc(-c3cc(C)ccn3)ccc2-c2nn[nH]n2)cc1 [Example 111, 2-methyl-3-((5′-(4-methylpyridin-2-yl)-2′-(2H-tetrazol-5-yl)-[1,1′-biphenyl]-4-yl)methyl)-1,3-diazaspiro[4.4]non-1-en-4-one]	6.4	63.3	15.7	12.6	–	24.1	22.3	14.7	80.7
CCC1=NC2(CCCC2)C(=O)N1Cc1ccc(-c2cc(-c3cc(C)ccn3)ccc2-c2nn[nH]n2)cc1 [Example 113]	14.9	66.3	17.8	83.5	–	28.6	17.2	9.8	88.6
CCCC1=NC2(CCCC2)C(=O)N1Cc1ccc(-c2cc(-c3cc(OC)ccn3)ccc2-c2nn[nH]n2)cc1 [Example 115, 3-((5′-(4-methoxypyridin-2-yl)-2′-(2H-tetrazol-5-yl)-[1,1′-biphenyl]-4-yl)methyl)-2-propyl-1,3-diazaspiro[4.4]non-1-en-4-one]	13.3	30.8	13.6	39.3	–	22.1	11.9	16.8	53.3
CCCC1=NC2(CCCC2)C(=O)N1Cc1ccc(-c2cc(-c3cc(C)ccn3)ccc2-c2nn[nH]n2)cc1 [Example 116, 3-((5′-(4-methylpyridin-2-yl)-2′-(2H-tetrazol-5-yl)-[1,1′-biphenyl]-4-yl)methyl)-2-propyl-1,3-diazaspiro[4.4]non-1-en-4-one]	14.1	42.1	15.1	39.7	–	27.7	14.7	17.2	81.9
Cc1ccnc(-c2ccc(-c3nn[nH]n3)c(-c3ccc(CN4C(=O)C5(CCCC5)N=C4C(C)C)cc3)c2)c1 [Example 118]	66	50.0	17.1	155	–	21.8	102	173	78.7
COc1ccnc(-c2ccc(-c3nn[nH]n3)c(-c3ccc(CN4C(=O)C5(CCCC5)N=C4C4CC4)cc3)c2)c1 [Example 119, 2-cyclopropyl-3-((5′-(4-methoxypyridin-2-yl)-2′-(2H-tetrazol-5-yl)-[1,1′-biphenyl]-4-yl)methyl)-1,3-diazaspiro[4.4]non-1-en-4-one]	47.5	51.4	18.4	108	–	21.8	40.5	53.9	63.9
